# Data taken from patent US8039617B2, “Method for producing alpha form crystals of sapropterin hydrochloride” (Shiratori Pharmaceutical Co., Ltd., priority 2005, dated 2011).
# Structures can show the parent of a compound that is named as a salt.
# Experiments:
# [1] = moisture absorption during storage; format: physicochemical; settings: for color change due to moisture absorption: hydrochloride
# Method: With regard to moisture absorption, α form crystal undergoes increase in weight by moisture absorption of 0.85 to 2% during storage for 14 days under the conditions of 25° C. and at relative humidity of 20 to 75%. […] On the other hand, weight of the β form crystal gradually increases under the conditions of 25° C. and a relative humidity of 60%, and weight increase is 3.5% at 18 hours and the increase continues to the maximum of 3.9%. From this, α form crystal is more moisture-stable than β form. […] Accordingly, α form crystal is suitable for storage.
# [2] = format: physicochemical
# Method: Furthermore, in differential thermal analysis, α form crystal has only one endothermic peak near the 250° C. as shown in FIG. 5 while β form crystal has two endothermic peaks near 180° C. and near 230° C. as shown in FIG. 6.
"weight increase by moisture absorption ([1]; 25° C., relative humidity of 60%, at 18 hours)","maximum weight increase by moisture absorption ([1]; 25° C., relative humidity of 60%, maximum)","course of weight increase over storage ([1]; 25° C., relative humidity of 20 to 75%, day 1 to day 14)",endothermic peak in differential thermal analysis (thermal stability) [2],SMILES,color change due to moisture absorption [1]
3.5%,3.9%,,,"C[C@H](O)[C@H](O)[C@H]1CNc2nc(N)[nH]c(=O)c2N1 [β form crystal, sapropterin hydrochloride]",changes the color from white to pale yellow
,,stable from day 1 to day 14,~250 °C,"C[C@H](O)[C@H](O)[C@H]1CNc2nc(N)[nH]c(=O)c2N1 [α form crystal, sapropterin hydrochloride]",does not change its color
